Assays:
Type in all cases: in vivo, rat
Sprague-Dawley rats [1] = experiment: Muscle pressure pain threshold value after repeated administration of reserpine; details: for time after reserpine final administration until which muscle pressure pain threshold value was statistically significantly low vs solvent group: reserpine 1 mg/kg s.c. once a day for 3 days
Experimental: (§1) Measurement of muscle pressure pain threshold value was carried out in accordance with the method of Schafers et al. (Schafers M. et al., Pain, 104, 579-588, 2003). A pressure stimulus of gradually increasing to 250 g at the maximum was added to the rat right hind leg gastrocnemius muscle. […] The measurement was carried out 3 times at each point of time of the measurement, and the average was used as the measurement value. Measurement of the skin pain sensation threshold value was carried out in accordance with the method of Chaplan et al. (Chaplan et al., J. Neurosci. Methods, 53, 55-63, 1994). This was measured using a series of von Frey filaments having different diameters which may add a constant pressure. […] The von Frey filament was applied using the up and down method. That is, by firstly applying a filament of middle diameter, a filament having one rank smaller diameter was applied when the withdrawal reaction was observed or a filament having one rank larger diameter was applied when the withdrawal reaction was not observed. The skin pain sensation threshold value at each point of time of the measurement was calculated as a hind paw withdrawal reaction threshold value (g) using the calculation formula reported by Chaplan et al. (Chaplan et al., described above). Influences of reserpine upon the muscle pressure pain threshold value and skin pain sensation threshold value were examined by the following protocol. A total of 24 animals for each of male and female rats were used. After measuring muscle pressure pain threshold value and skin pain sensation threshold value before the reserpine treatment (base line), they were divided based on the reserpine administration doses into a solvent (0.5% acetic acid aqueous solution) group, a reserpine 0.1 mg/kg group, a 0.3 mg/kg group and a 1 mg/kg group (the number of animals per one group was 6). The solvent or reserpine was subcutaneously administered on the back of the rats of each group once a day for 3 days. All of the administration volume of the solvent or reserpine was set to 1 ml per 1 kg body weight of each animal. After final administration of the solvent or reserpine, the muscle pressure pain threshold value and skin pain sensation threshold value of each rat were measured 1, 3, 5, 7, 10, 14 and 21 days thereafter.
(§2) All of the measured values were expressed as average value±standard error. Statistical significance test of the measured values between the reserpine administration groups and the solvent administration group at each point of time was carried out by a two-way analysis of variance and the Bonferroni method. Probability value (P) of less than 5% was judged as statistically significant (P<0.05 was expressed as * in the graphs).

Sprague-Dawley rats [2] = experiment: Skin pain sensation threshold value after reserpine single administration; details: reserpine 3 mg/kg single s.c.
Experimental: Measurement of the skin pain sensation threshold value was carried out in the same manner as in Example 1. That is, this was measured using a series of von Frey filaments having different diameter which can add a constant pressure. […] The von Frey filament was applied using the up and down method. That is, by firstly applying a filament of about middle diameter, a filament having one rank smaller diameter was applied when the withdrawal reaction was observed or a filament having one rank larger diameter was applied when the withdrawal reaction was not observed. The skin pain sensation threshold value at each point of time was calculated as a hind paw withdrawal reaction threshold value (g).
Influences of the reserpine single administration upon the muscle pressure pain threshold value, skin pain sensation threshold value, cold sensitivity and heat sensitivity were examined in accordance with the following protocol. A total of 12 male rats were used. The muscle pressure pain threshold value, skin pain sensation threshold value, cold sensitivity and heat sensitivity before the reserpine treatment (base lines) were measured and then they were divided into a solvent (0.5% acetic acid aqueous solution) group and a reserpine (3 mg/kg) group (the number of animals per group was 6). […] The muscle pressure pain threshold value, skin pain sensation threshold value, cold sensitivity and heat sensitivity of each rat were measured at the points of measurement time of acute phase after administration of the solvent or reserpine (2, 4, 8 and 24 hours) and chronic phase (2, 3, 5, 7, 10, 14 and 21 days).
as §2, with “by the” for “by a”

Sprague-Dawley rats [3] = experiment: Forced swimming test (immobility time) after repeated administration of reserpine; details: reserpine 1 mg/kg s.c. once a day for 3 days
Experimental: Male Sprague-Dawley rats (7 weeks old, Japan SLC, Hamamatsu, Japan) were used as the animal. The forced swimming test was carried out by modifying the method of Porsolt et al. (1977) in the following manner. A soft wire equipped with a magnet (1 mm in diameter, 3 mm in length) was attached to both forelimbs of each animal, and the animal was allowed to swim in a cylindrical plastic water bath (20 cm in diameter, 45 cm in height) filled with water (24±1° C.) to a depth of 30 cm. In this test, the immobility time of each animal was measured using a forced swimming automatic measuring device (MicroAct Scratching Test version 1.06; Neuroscience, Tokyo, Japan) which detects movement of the forelimbs equipped with the magnet, through a coil around the cylinder.
Influence of reserpine upon the immobility time in the forced swimming test was examined in accordance with the following protocol. […] All of the measured values were expressed as average value±standard error. Statistical difference of the measured values between the reserpine administration groups and the vehicle administration group in each test schedule was carried out by the Student's t-test. Probability value (P) of less than 5% was judged as statistically significant (P<0.05 was expressed as * in the graphs).

Sprague-Dawley rats [4] = experiment: Skin pain sensation threshold value (von Frey filaments) after repeated administration of reserpine; details: for time after reserpine final administration until which skin pain sensation threshold value was statistically significantly low vs solvent group: reserpine 1 mg/kg s.c. once a day for 3 days
Experimental: as §1, §2

[5] = male and female rats, reserpine 0.1, 0.3, 1 mg/kg s.c. once a day for 3 days, two-way analysis of variance vs solvent
[6] = reserpine 1 mg/kg group, s.c. once a day for 3 days

Compound: COC(=O)[C@H]1[C@H]2C[C@@H]3c4[nH]c5cc(OC)ccc5c4CCN3C[C@H]2C[C@@H](OC(=O)c2cc(OC)c(OC)c(OC)c2)[C@@H]1OC [reserpine]
- time after reserpine final administration until which muscle pressure pain threshold value was statistically significantly low vs solvent group (Sprague-Dawley rats [1]; female rats): 7 days
- muscle pressure pain threshold value (Sprague-Dawley rats [1]; [5]): significantly reduced
- time after reserpine final administration until which muscle pressure pain threshold value was statistically significantly low vs solvent group (Sprague-Dawley rats [1]; male rats): 10 days
- muscle pressure pain threshold value (Sprague-Dawley rats [1]; [6]): markedly reduced
- duration of chronic muscle pain and chronic tactile allodynia after administration (Sprague-Dawley rats [1]; reserpine administered to a mammal (summary statement)): ≥ 1 week
- time after administration at which transient acute-phase tactile allodynia recovers (Sprague-Dawley rats [2]): 4 h
- skin pain sensation threshold value (Sprague-Dawley rats [2]; 2, 3, 5, 7, 10, 14 and 21 days after administration): significantly reduced
- skin pain sensation threshold value (Sprague-Dawley rats [2]; after 2 hours): significantly reduced
- immobility time in forced swimming test vs vehicle administration group (Sprague-Dawley rats [3]; after 3, 5, 7 and 14 days of the final administration (P=0.0007, P=0.004, P<0.0001, P=0.0008)): significant increase
- immobility time in forced swimming test vs vehicle administration group (Sprague-Dawley rats [3]; after 1 day of the final administration (P=0.625, Student's t-test)): Significant increase in the immobility time by the reserpine administration was not found
- time after reserpine final administration until which skin pain sensation threshold value was statistically significantly low vs solvent group (Sprague-Dawley rats [4]; female rats): 14 days
- skin pain sensation threshold value (Sprague-Dawley rats [4]; [5]): significantly reduced
- time after reserpine final administration until which skin pain sensation threshold value was statistically significantly low vs solvent group (Sprague-Dawley rats [4]; male rats): 21 days
- skin pain sensation threshold value (Sprague-Dawley rats [4]; [6]): markedly reduced
